This is an account of results in patent US10933141B2, “Formulations with reduced degradation of polysorbate” (Genentech, Inc., priority 2015, dated 2021).

In one data set the test system is Lipoprotein Lipase (LPL). The data set is described as follows: Enzymatic degradation of PS20 by LPL, PS20 by RP-ELSD. The settings on record: 15% w/v HP-β-CD; 0.02% PS20, pH 5.5; 70 μg/mL LPL, 5 hours, room temperature. The format is biochemical, Burkholderia sp. How it is done:
(§1) Polysorbate concentration was determined using reverse phase ultra-performance liquid chromatography using evaporative light scattering detection (RP-ELSD). Samples were analyzed using an Agilent 1100 series high performance liquid chromatography system (HPLC) fitted with a Waters Oasis MAX cartridge column (20×2.1 mm, 30 μm particle size). The HPLC system was set up with a switching valve directing column flow-through to either waste or a Varian 380-LC evaporative light scattering detector set to 100° C. The mobile phases consisted of 2% formic acid in water (Pump A) and 2% formic acid in isopropanol (Pump B). […] In order to quantitate the PS20 concentration, a standard curve was generated by injecting 20 μL of solutions containing between 0% w/v and 0.4% w/v PS20. For excipients which affected the migration time of PS20 through the column, PS20 standard curve solutions containing the relevant excipient were included in the analysis to facilitate accurate quantitation.
The effect of 15% HP-β-CD on the enzymatic degradation of PS20 was measured. […]
PPL digestion was stopped by heat inactivation in an 85° C. water bath for 30 minutes. LPL and RLE digestion could not be stopped by heat inactivation, so the samples were analyzed immediately for PS20 content. […]

The next data set has as its system CALB, RLE, and LPL. The data set is described as follows: PS20 loss and subvisible particles after digestion, summary across CALB, LPL and RLE. The format is biochemical. The settings on record: 15% (w/v) HP-β-CD vs 0%; ≥2, ≥5, ≥10, ≥25 micron; HIAC. How it is done: Subvisible particles were measured using a HIAC 9703 particle counter equipped with an HRDL-150 detector and a 1 mL syringe. Performance of the instrument was verified with NIST-traceable 2 μm Polystyrene bead standards at 3000 counts/mL before each measurement session. The HIAC instrument was configured to a 10 mL/min flow rate, 0.1 mL tare volume, and 0.4 mL sample volume. The samples were analyzed using 4 runs of 0.4 mL sips, with the first run of each sample was discarded to prevent measurement error due to sample carryover. Results were reported as the average values for 1.4, 2, 5, 10, 15, and 25, 50 μm analysis filter sizes.
as §1, with “size).” for “size). The HPLC system was set up with a switching valve directing column flow-through to either waste or a Varian 380-LC evaporative light scattering detector set to 100° C. The mobile phases consisted of 2% formic acid in water (Pump A) and 2% formic acid in isopropanol (Pump B).”, “quantitation. […]” for “quantitation.”

For “2-hydroxypropyl-β-cyclodextrin [HP-β-CD]”, the “Polysorbate 20 (Relative %)” value with Lipoprotein Lipase (LPL) was found to be 77.5%. For the same substance, the “subvisible particulates (SVP/mL) after enzymatic degradation” value in the data set with CALB, RLE, and LPL is given as “fewer SVP/mL”.
